Data reported in paper PMC2896053 (Pharmaceutical research, 2009).
Entries after “also recorded” stand apart in the source; their conditions may differ. Structures can show the parent of a compound that is named as a salt.

Experiments:
[1] = tested on: BBB transport of 125I-ANG1005; experiment: brain 125I-ANG1005 uptake with co-perfused transport inhibitors; assay type: in vivo, rat; details: P>0.05
[2] = male, Sprague Dawley, rat, in vivo
[3] = female, NuNu, mouse, in vivo, 30 min
[4] = cited from earlier work
[5] = capillary depletion after in situ brain perfusion; assay type: in vivo, rat; details: 120 s perfusion, 30 s post wash
[6] = molecular target: low density lipoprotein receptor-related protein (LRP) (Rattus norvegicus, UniProt G3V928); experiment: brain 125I-ANG1005 uptake with co-perfused unlabeled angiopep-2 or LRP ligands; assay type: in vivo; details: co-perfusion 120 s with 10 or 100 μM unlabeled angiopep-2, P<0.05
[7] = tested on: brain endothelial monolayer system; details: cited from earlier work
[8] = cited from earlier work; remark: listed apart in the source
[9] = in situ rat brain perfusion, BBB transfer coefficient; details: P>0.05

Sequence of low density lipoprotein receptor-related protein (LRP) (G3V928 20-3944 limits assumed): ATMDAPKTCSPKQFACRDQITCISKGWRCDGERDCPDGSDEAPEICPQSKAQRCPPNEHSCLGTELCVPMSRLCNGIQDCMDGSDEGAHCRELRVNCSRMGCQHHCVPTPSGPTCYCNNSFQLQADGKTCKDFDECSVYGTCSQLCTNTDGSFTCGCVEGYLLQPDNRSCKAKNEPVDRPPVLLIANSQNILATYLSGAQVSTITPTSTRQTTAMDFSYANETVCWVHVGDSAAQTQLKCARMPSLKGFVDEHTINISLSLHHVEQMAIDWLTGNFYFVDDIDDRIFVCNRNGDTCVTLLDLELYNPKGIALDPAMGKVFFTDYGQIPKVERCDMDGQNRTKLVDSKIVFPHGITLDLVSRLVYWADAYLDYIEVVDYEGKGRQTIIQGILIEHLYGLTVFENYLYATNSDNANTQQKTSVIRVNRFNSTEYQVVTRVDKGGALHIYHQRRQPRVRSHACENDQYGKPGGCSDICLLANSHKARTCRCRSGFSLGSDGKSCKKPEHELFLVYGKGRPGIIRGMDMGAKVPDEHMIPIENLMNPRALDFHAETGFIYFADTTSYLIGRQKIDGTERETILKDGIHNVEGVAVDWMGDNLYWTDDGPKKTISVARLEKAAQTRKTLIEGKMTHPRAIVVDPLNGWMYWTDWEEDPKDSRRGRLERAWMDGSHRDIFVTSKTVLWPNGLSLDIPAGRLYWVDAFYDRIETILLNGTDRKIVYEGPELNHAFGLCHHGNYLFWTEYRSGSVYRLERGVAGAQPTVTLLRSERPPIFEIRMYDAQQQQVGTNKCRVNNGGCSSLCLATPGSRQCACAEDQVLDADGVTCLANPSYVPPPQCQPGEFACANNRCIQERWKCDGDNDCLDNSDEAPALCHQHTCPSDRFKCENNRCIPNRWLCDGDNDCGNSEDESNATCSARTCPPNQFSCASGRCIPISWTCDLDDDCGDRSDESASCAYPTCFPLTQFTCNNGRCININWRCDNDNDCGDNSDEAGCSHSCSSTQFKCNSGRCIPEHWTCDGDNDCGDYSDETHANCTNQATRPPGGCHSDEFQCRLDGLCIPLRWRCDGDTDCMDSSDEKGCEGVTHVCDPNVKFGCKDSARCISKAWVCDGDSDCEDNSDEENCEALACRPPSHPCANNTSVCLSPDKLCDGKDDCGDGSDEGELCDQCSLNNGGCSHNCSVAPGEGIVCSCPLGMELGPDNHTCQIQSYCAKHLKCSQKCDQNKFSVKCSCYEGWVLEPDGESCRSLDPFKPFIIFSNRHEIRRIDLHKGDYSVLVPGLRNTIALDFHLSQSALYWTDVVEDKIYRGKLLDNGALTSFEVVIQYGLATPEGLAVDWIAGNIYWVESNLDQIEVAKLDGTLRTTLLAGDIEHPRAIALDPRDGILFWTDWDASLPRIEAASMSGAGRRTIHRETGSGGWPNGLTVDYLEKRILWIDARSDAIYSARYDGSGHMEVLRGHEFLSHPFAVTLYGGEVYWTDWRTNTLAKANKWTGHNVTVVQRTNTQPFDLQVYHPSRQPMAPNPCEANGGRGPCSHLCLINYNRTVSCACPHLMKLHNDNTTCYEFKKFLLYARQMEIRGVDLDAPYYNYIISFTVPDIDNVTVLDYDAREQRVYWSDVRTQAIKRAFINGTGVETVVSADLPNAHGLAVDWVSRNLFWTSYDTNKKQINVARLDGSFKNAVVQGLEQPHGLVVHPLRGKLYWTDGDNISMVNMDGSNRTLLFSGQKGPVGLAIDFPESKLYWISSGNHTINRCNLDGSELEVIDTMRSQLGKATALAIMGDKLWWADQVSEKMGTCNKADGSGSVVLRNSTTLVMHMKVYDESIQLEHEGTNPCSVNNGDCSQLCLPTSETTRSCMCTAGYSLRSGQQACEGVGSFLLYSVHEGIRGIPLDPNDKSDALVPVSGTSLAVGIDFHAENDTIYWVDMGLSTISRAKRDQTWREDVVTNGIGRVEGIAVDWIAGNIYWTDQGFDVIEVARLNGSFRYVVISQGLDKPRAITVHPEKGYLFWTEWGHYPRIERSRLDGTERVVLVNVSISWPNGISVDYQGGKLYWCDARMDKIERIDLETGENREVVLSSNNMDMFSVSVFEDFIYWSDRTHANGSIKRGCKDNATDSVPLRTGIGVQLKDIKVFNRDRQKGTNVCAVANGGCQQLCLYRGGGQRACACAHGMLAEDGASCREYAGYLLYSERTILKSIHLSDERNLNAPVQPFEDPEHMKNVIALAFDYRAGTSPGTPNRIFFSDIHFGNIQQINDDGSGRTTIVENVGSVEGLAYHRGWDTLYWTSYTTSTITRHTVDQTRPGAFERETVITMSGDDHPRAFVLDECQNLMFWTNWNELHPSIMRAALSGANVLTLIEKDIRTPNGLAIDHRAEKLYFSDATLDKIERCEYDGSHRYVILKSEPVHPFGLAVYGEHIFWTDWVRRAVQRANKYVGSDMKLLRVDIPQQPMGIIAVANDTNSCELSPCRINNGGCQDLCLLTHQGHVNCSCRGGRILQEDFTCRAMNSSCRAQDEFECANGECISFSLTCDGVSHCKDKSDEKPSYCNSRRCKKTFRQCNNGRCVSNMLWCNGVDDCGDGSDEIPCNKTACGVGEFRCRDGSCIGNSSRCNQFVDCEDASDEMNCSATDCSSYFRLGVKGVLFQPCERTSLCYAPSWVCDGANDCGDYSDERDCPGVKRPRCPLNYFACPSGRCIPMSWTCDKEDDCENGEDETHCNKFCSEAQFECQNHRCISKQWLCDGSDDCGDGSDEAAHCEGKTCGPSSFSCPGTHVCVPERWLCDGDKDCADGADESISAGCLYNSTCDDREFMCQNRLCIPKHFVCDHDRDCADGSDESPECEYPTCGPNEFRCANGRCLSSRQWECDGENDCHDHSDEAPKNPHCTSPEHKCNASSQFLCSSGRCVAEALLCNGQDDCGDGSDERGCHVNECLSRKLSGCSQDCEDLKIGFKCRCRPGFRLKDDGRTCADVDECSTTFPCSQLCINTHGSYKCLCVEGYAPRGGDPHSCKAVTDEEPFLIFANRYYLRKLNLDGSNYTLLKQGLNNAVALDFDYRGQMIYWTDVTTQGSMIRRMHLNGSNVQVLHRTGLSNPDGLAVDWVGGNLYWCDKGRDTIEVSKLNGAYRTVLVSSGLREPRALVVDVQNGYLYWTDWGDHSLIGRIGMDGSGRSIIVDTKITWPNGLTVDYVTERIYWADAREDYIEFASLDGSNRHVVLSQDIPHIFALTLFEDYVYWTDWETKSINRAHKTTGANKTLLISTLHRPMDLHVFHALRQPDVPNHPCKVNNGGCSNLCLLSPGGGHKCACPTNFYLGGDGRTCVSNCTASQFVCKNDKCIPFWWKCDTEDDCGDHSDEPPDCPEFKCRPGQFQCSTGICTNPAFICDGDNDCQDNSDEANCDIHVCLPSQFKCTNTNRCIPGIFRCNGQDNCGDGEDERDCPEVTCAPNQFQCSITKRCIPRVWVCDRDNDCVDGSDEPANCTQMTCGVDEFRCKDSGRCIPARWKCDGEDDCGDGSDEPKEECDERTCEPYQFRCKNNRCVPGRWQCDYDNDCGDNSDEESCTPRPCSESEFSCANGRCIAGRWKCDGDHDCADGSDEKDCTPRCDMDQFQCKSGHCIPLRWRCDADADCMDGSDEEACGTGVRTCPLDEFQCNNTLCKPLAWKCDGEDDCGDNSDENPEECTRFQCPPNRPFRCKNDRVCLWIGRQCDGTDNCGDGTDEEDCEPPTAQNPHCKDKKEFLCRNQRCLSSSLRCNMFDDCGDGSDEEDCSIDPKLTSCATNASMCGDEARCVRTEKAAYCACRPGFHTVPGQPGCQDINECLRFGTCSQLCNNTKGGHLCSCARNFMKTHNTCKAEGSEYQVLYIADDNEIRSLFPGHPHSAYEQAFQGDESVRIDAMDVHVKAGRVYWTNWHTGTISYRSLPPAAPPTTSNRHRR
Sequence of low density lipoprotein receptor-related protein (LRP) (G3V928 3945-4545 limits assumed): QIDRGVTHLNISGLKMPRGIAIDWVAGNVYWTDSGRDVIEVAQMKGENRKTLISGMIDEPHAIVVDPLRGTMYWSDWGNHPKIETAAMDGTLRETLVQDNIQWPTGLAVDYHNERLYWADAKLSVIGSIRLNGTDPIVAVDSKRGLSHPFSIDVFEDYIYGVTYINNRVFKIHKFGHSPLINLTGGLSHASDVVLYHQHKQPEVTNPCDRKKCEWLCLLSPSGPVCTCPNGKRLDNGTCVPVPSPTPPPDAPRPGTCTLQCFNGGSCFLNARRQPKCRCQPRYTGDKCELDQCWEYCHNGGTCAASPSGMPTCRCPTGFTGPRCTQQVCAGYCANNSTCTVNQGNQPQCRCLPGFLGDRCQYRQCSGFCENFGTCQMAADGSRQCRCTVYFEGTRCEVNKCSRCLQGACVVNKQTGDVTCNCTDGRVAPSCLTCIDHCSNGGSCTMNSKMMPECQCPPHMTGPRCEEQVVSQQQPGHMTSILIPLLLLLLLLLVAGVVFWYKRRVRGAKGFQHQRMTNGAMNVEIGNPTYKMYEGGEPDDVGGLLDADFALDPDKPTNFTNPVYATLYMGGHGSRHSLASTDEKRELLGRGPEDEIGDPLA

## poly-L-lysine
[1]; co-perfusion with poly-l-lysine 25 μM
  effect on Kin for brain uptake of 125I-ANG1005: not inhibited
[1]; co-perfusion with poly-l-lysine 25 μM, listed as poly-l-lysine
  effect on Kin for brain uptake of 125I-ANG1005: None of the four agents produced a statistically significant decrease

## CN(C)CCCN1c2ccccc2Sc2ccc(Cl)cc21 [chlorpromazine, chlorpromazine hydrochloride]
[1]; co-perfusion with chlorpromazine 100 μM
  effect on Kin for brain uptake of 125I-ANG1005: None of the four agents produced a statistically significant decrease; also recorded: failed to alter

## CC(=O)O[C@H]1C(=O)[C@@]2(C)[C@H]([C@H](OC(=O)c3ccccc3)[C@]3(O)C[C@H](OC(=O)[C@H](O)[C@@H](NC(=O)c4ccccc4)c4ccccc4)C(C)=C1C3(C)C)[C@]1(OC(C)=O)CO[C@@H]1C[C@@H]2O [paclitaxel]
[2]
  BBB transfer coefficient (Kin) for brain uptake: 8.5 ± 0.5 × 10^−5 mL/s/g
[3]
  lowering of brain drug content by vascular correction: ~ 84%
[4]
  rise of brain paclitaxel concentrations on inhibition of active efflux transport: 6–10 fold

## N[C@@H](Cc1ccccc1)C(=O)O [L-phenylalanine]
[1]; co-perfusion with L-phenylalanine 1 mM
  effect on Kin for brain uptake of 125I-ANG1005: None of the four agents produced a statistically significant decrease; also recorded: not inhibited

## angiopep-2
[5]
  brain tracer in parenchymal fraction: > 70%
  brain tracer in vascular (capillary) pellet: < 30%
[6]
  reduction of brain 125I-ANG1005 uptake: 30–40%
[7]
  transcytosis across a brain endothelial monolayer system in vitro: enhanced transcytosis
[8]
  brain uptake by in situ perfusion: improved brain uptake
[9]
  brain 14C-sucrose space in the presence of the tracer (BBB permeability): not altered from control

## OC[C@H]1O[C@@](CO)(O[C@H]2O[C@H](CO)[C@@H](O)[C@H](O)[C@H]2O)[C@@H](O)[C@@H]1O [^14C-sucrose, sucrose]
[2]
  brain vascular volume Vv (brain distribution space of 14C-sucrose): 1.2 ± 0.2 × 10^−2 mL/g

## COc1ccc2c(c1)c(CC(=O)O)c(C)n2C(=O)c1ccc(Cl)cc1 [indomethacin]
[1]; co-perfusion with indomethacin 300 μM
  effect on Kin for brain uptake of 125I-ANG1005: None of the four agents produced a statistically significant decrease; also recorded: failed to alter
